{
  "source": "PubChem BioAssay (NCI)",
  "test_in_all_cases": "DTP human tumour cell line panel, 48 h",
  "key": {"OVCAR-8 ovarian": {"tested_on": "OVCAR-8 ovarian"}, "BT-549 breast": {"tested_on": "BT-549 breast"}, "SNB-19 CNS": {"tested_on": "SNB-19 CNS"}, "UO-31 renal": {"tested_on": "UO-31 renal"}, "RXF 393 renal": {"tested_on": "RXF 393 renal"}, "COLO 205 colon": {"tested_on": "COLO 205 colon"}, "MDA-N": {"tested_on": "MDA-N"}, "HOP-92 NSCLC": {"tested_on": "HOP-92 NSCLC"}, "EKVX NSCLC": {"tested_on": "EKVX NSCLC"}, "MCF7 breast": {"tested_on": "MCF7 breast"}, "IGROV1 ovarian": {"tested_on": "IGROV1 ovarian"}, "SK-MEL-2 melanoma": {"tested_on": "SK-MEL-2 melanoma"}, "PC-3 prostate": {"tested_on": "PC-3 prostate"}, "NCI-H460 lung": {"tested_on": "NCI-H460 lung"}, "A549 NSCLC": {"tested_on": "A549 NSCLC"}, "T-47D breast": {"tested_on": "T-47D breast"}, "HCT-116 colon": {"tested_on": "HCT-116 colon"}, "HOP-62 NSCLC": {"tested_on": "HOP-62 NSCLC"}, "SW-620 colon": {"tested_on": "SW-620 colon"}, "K-562 leukemia": {"tested_on": "K-562 leukemia"}, "SNB-75 CNS": {"tested_on": "SNB-75 CNS"}, "ACHN renal": {"tested_on": "ACHN renal"}, "NCI-H226 lung": {"tested_on": "NCI-H226 lung"}, "OVCAR-5 ovarian": {"tested_on": "OVCAR-5 ovarian"}, "HL-60(TB) leukemia": {"tested_on": "HL-60(TB) leukemia"}, "UACC-257 melanoma": {"tested_on": "UACC-257 melanoma"}, "SR leukemia": {"tested_on": "SR leukemia"}, "SK-MEL-28 melanoma": {"tested_on": "SK-MEL-28 melanoma"}, "HCT-15 colon": {"tested_on": "HCT-15 colon"}, "U251 CNS": {"tested_on": "U251 CNS"}, "MDA-MB-231 breast": {"tested_on": "MDA-MB-231 breast"}, "786-0 renal": {"tested_on": "786-0 renal"}, "TK-10 renal": {"tested_on": "TK-10 renal"}, "HT29 colon": {"tested_on": "HT29 colon"}, "SK-MEL-5 melanoma": {"tested_on": "SK-MEL-5 melanoma"}, "M14 melanoma": {"tested_on": "M14 melanoma"}, "UACC-62 melanoma": {"tested_on": "UACC-62 melanoma"}, "MOLT-4 leukemia": {"tested_on": "MOLT-4 leukemia"}, "KM12 colon": {"tested_on": "KM12 colon"}, "RPMI-8226 leukemia": {"tested_on": "RPMI-8226 leukemia"}, "HCC-2998 colon": {"tested_on": "HCC-2998 colon"}, "HS 578T breast": {"tested_on": "HS 578T breast"}, "MALME-3M melanoma": {"tested_on": "MALME-3M melanoma"}, "NCI-H23 lung": {"tested_on": "NCI-H23 lung"}},
  "note": "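Following 48 hours of exposure in 96-well plates, responses at five concentrations were used to interpolate endpoints linearly. TGI: total growth inhibition.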",
  "data": [
    {"compound": "O=C(CC(=O)n1nc(-c2ccccc2)c(N=Nc2ccccc2C(=O)O)c1-c1ccccc1)Nc1ccc(Cl)cc1", "values": [
      {"measurement": "TGI", "setting": "OVCAR-8 ovarian", "value": "> 100", "unit": "µM"},
      {"measurement": "TGI", "setting": "BT-549 breast", "value": 93, "unit": "µM"},
      {"measurement": "TGI", "setting": "SNB-19 CNS", "value": 81.8, "unit": "µM"},
      {"measurement": "TGI", "setting": "UO-31 renal", "value": 47.8, "unit": "µM"},
      {"measurement": "TGI", "setting": "RXF 393 renal", "value": 80.8, "unit": "µM"},
      {"measurement": "TGI", "setting": "COLO 205 colon", "value": "> 100", "unit": "µM"},
      {"measurement": "TGI", "setting": "MDA-N", "value": "> 100", "unit": "µM"},
      {"measurement": "TGI", "setting": "HOP-92 NSCLC", "value": 42.2, "unit": "µM"},
      {"measurement": "TGI", "setting": "EKVX NSCLC", "value": "> 100", "unit": "µM"},
      {"measurement": "TGI", "setting": "MCF7 breast", "value": "> 100", "unit": "µM"},
      {"measurement": "TGI", "setting": "IGROV1 ovarian", "value": "> 100", "unit": "µM"},
      {"measurement": "TGI", "setting": "SK-MEL-2 melanoma", "value": "> 100", "unit": "µM"},
      {"measurement": "TGI", "setting": "PC-3 prostate", "value": "> 100", "unit": "µM"},
      {"measurement": "TGI", "setting": "NCI-H460 lung", "value": "> 100", "unit": "µM"},
      {"measurement": "TGI", "setting": "A549 NSCLC", "value": "> 100", "unit": "µM"},
      {"measurement": "TGI", "setting": "T-47D breast", "value": "> 100", "unit": "µM"},
      {"measurement": "TGI", "setting": "HCT-116 colon", "value": "> 100", "unit": "µM"},
      {"measurement": "TGI", "setting": "HOP-62 NSCLC", "value": "> 100", "unit": "µM"},
      {"measurement": "TGI", "setting": "SW-620 colon", "value": "> 100", "unit": "µM"},
      {"measurement": "TGI", "setting": "K-562 leukemia", "value": "> 100", "unit": "µM"},
      {"measurement": "TGI", "setting": "SNB-75 CNS", "value": 83.1, "unit": "µM"},
      {"measurement": "TGI", "setting": "ACHN renal", "value": "> 100", "unit": "µM"},
      {"measurement": "TGI", "setting": "NCI-H226 lung", "value": "> 100", "unit": "µM"},
      {"measurement": "TGI", "setting": "OVCAR-5 ovarian", "value": "> 100", "unit": "µM"},
      {"measurement": "TGI", "setting": "HL-60(TB) leukemia", "value": 40.9, "unit": "µM"},
      {"measurement": "TGI", "setting": "UACC-257 melanoma", "value": "> 100", "unit": "µM"},
      {"measurement": "TGI", "setting": "SR leukemia", "value": 42, "unit": "µM"},
      {"measurement": "TGI", "setting": "SK-MEL-28 melanoma", "value": "> 100", "unit": "µM"},
      {"measurement": "TGI", "setting": "HCT-15 colon", "value": "> 100", "unit": "µM"},
      {"measurement": "TGI", "setting": "U251 CNS", "value": "> 100", "unit": "µM"},
      {"measurement": "TGI", "setting": "MDA-MB-231 breast", "value": "> 100", "unit": "µM"},
      {"measurement": "TGI", "setting": "786-0 renal", "value": "> 100", "unit": "µM"},
      {"measurement": "TGI", "setting": "TK-10 renal", "value": "> 100", "unit": "µM"},
      {"measurement": "TGI", "setting": "HT29 colon", "value": "> 100", "unit": "µM"},
      {"measurement": "TGI", "setting": "SK-MEL-5 melanoma", "value": "> 100", "unit": "µM"},
      {"measurement": "TGI", "setting": "M14 melanoma", "value": "> 100", "unit": "µM"},
      {"measurement": "TGI", "setting": "UACC-62 melanoma", "value": "> 100", "unit": "µM"},
      {"measurement": "TGI", "setting": "MOLT-4 leukemia", "value": 27.9, "unit": "µM"},
      {"measurement": "TGI", "setting": "KM12 colon", "value": "> 100", "unit": "µM"},
      {"measurement": "TGI", "setting": "RPMI-8226 leukemia", "value": "> 100", "unit": "µM"},
      {"measurement": "TGI", "setting": "HCC-2998 colon", "value": "> 100", "unit": "µM"},
      {"measurement": "TGI", "setting": "HS 578T breast", "value": "> 100", "unit": "µM"},
      {"measurement": "TGI", "setting": "MALME-3M melanoma", "value": "> 100", "unit": "µM"},
      {"measurement": "TGI", "setting": "NCI-H23 lung", "value": 93.9, "unit": "µM"}
    ]}
  ]
}
